Test results taken from the supplement of paper PMC10307832.

Experiments:
Assay in all cases: relative viability (nuclei count vs DMSO), 5 days (fraction); higher = more cells survive
Fedratinib + AZD7762 = compound: Cc1cnc(Nc2ccc(OCCN3CCCC3)cc2)nc1Nc1cccc(S(=O)(=O)NC(C)(C)C)c1 [Fedratinib] + NC(=O)Nc1cc(-c2cccc(F)c2)sc1C(=O)N[C@H]1CCCNC1 [AZD7762] (partner 0.2 µM)
How it was run: (§1)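 Lung cancer cell lines were pin-tool dosed in 1536-well plates on the day after seeding, with either a lone drug or a fixed anchor-drug dose plus five library-drug doses (not always all listed) in √10 steps. Nuclei were counted on 4× images after 5 days. Relative viability is the ratio of treated-well to vehicle-well nuclei counts, with each value a median of duplicate plates.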

GW-2580 + Trametinib = compound: COC1=CC=C(C=C1)COC2=C(C=C(C=C2)CC3=CN=C(N=C3N)N)OC [GW-2580] + CC(=O)Nc1cccc(-n2c(=O)n(C3CC3)c(=O)c3c(Nc4ccc(I)cc4F)n(C)c(=O)c(C)c32)c1 [Trametinib] (partner 0.02 µM)
How it was run: as §1

Fedratinib + Navitoclax = compound: Cc1cnc(Nc2ccc(OCCN3CCCC3)cc2)nc1Nc1cccc(S(=O)(=O)NC(C)(C)C)c1 [Fedratinib] + CC1(C)CCC(c2ccc(Cl)cc2)=C(CN2CCN(c3ccc(C(=O)NS(=O)(=O)c4ccc(N[C@H](CCN5CCOCC5)CSc5ccccc5)c(S(=O)(=O)C(F)(F)F)c4)cc3)CC2)C1 [Navitoclax] (partner 0.5 µM)
How it was run: as §1

Fedratinib + Bortezomib = compound: Cc1cnc(Nc2ccc(OCCN3CCCC3)cc2)nc1Nc1cccc(S(=O)(=O)NC(C)(C)C)c1 [Fedratinib] + CC(C)C[C@H](NC(=O)[C@H](Cc1ccccc1)NC(=O)c1cnccn1)B(O)O [Bortezomib] (partner 0.002 µM)
How it was run: as §1

Fedratinib = compound: Cc1cnc(Nc2ccc(OCCN3CCCC3)cc2)nc1Nc1cccc(S(=O)(=O)NC(C)(C)C)c1 [Fedratinib]
How it was run: (§2)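 Vehicle-anchored 1536-well plates of lung cancer cell lines, held overnight at 37 °C, were pinned with five library-drug doses (not always all listed) spaced by √10. No medium change followed over the next 5 days, after which the cells were fixed, permeabilised and Hoechst-stained together and imaged at 4×. Nuclei were counted with MetaXpress, and viability is treated-well nuclei over vehicle-well nuclei, taken as a median across plates. Plates passed with control CV below 25% and at least one doubling.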

GW-2580 = compound: COC1=CC=C(C=C1)COC2=C(C=C(C=C2)CC3=CN=C(N=C3N)N)OC [GW-2580]
How it was run: as §2

| Cell Line | relative viability (Fedratinib + AZD7762; first compound 0.1 µM) | relative viability (Fedratinib + AZD7762; first compound 0.3162 µM) | relative viability (Fedratinib + AZD7762; first compound 1 µM) | relative viability (GW-2580 + Trametinib; first compound 0.08 µM) | relative viability (GW-2580 + Trametinib; first compound 0.8 µM) | relative viability (GW-2580 + Trametinib; first compound 2.53 µM) | relative viability (GW-2580 + Trametinib; first compound 8 µM) | relative viability (Fedratinib + Navitoclax; first compound 0.1 µM) | relative viability (Fedratinib + Navitoclax; first compound 0.3162 µM) | relative viability (Fedratinib + Navitoclax; first compound 1 µM) | relative viability (Fedratinib + Bortezomib; first compound 0.1 µM) | relative viability (Fedratinib + Bortezomib; first compound 0.3162 µM) | relative viability (Fedratinib + Bortezomib; first compound 1 µM) | relative viability (Fedratinib; 0.1 µM) | relative viability (Fedratinib; 0.3162 µM) | relative viability (Fedratinib; 1 µM) | relative viability (GW-2580; 0.08 µM) | relative viability (GW-2580; 0.8 µM) | relative viability (GW-2580; 2.53 µM) | relative viability (GW-2580; 8 µM) |
| --- | --- | --- | --- | --- | --- | --- | --- | --- | --- | --- | --- | --- | --- | --- | --- | --- | --- | --- | --- | --- |
| HCC-44 | 0.995 | 1 | 1 | 1.04 | 1.06 | 0.986 | 0.959 | 0.914 | 0.874 | 1.04 | 0.905 | 0.827 | 0.734 | 0.963 | 0.982 | 0.882 | 0.981 | 1.03 | 0.896 | 1.01 |
| HCC-78 | 0.582 | 0.526 | 0.497 | 0.838 | 0.844 | 0.644 | 0.768 | 0.676 | – | 0.834 | 0.439 | 0.535 | 0.511 | 0.87 | 0.869 | 0.96 | 0.95 | 1.21 | 0.675 | 0.933 |
| NCI-H727 | 0.639 | 0.465 | 0.576 | 0.417 | 0.382 | 0.364 | 0.383 | 0.381 | 0.346 | 0.213 | 0.655 | 0.733 | 0.178 | 1.03 | 0.928 | 0.813 | 1.14 | 1.03 | 0.971 | 0.823 |
| NCI-H2087 | 1.39 | 1.37 | 1.42 | 0.178 | 0.204 | 0.2 | 0.227 | 0.928 | 0.962 | 1 | 0.806 | 0.754 | 0.259 | 1 | 0.99 | 0.856 | 1 | 1.08 | 0.942 | 0.933 |
| BEN | 0.623 | 0.553 | 0.568 | 1.05 | 1.1 | 0.898 | 0.979 | 0.0815 | 0.055 | 0.0392 | 0.673 | 0.607 | 0.559 | 0.842 | 0.91 | 0.831 | 0.949 | 1.08 | 0.776 | 0.905 |
| EKVX | 0.738 | 0.815 | 0.656 | 0.337 | 0.474 | 0.461 | 0.345 | 1.08 | 0.918 | 0.944 | 1.11 | 1.11 | 1.06 | 1.06 | 0.952 | 0.978 | 0.962 | 1.22 | 0.81 | 0.941 |
| LXF-289 | 1.08 | 1.07 | 0.966 | 0.724 | 0.708 | 0.688 | 0.651 | 0.925 | 0.875 | 0.939 | 1.02 | 0.978 | 0.78 | 0.978 | 0.997 | 0.974 | 1.03 | 1.08 | 0.988 | 0.937 |
| NCI-H2085 | 0.952 | 0.925 | 0.928 | 0.526 | 0.515 | 0.484 | 0.638 | 1.01 | 1.01 | 0.883 | 1.04 | 1.09 | 0.416 | 0.929 | 1.02 | 0.883 | 1.05 | 1.03 | 0.987 | 0.954 |
| LC-2-ad | 0.829 | 0.863 | 0.818 | 0.883 | 0.995 | 0.923 | 0.816 | 0.436 | 0.45 | 0.3 | 1.04 | 0.96 | 0.0819 | 0.983 | 1.03 | 0.588 | 1.04 | 1.14 | 1.01 | 0.988 |
| NCI-H1355 | 0.646 | 0.707 | 0.612 | 0.469 | 0.502 | 0.35 | 0.443 | 0.796 | 0.973 | 0.949 | 1.21 | 1.24 | 1.09 | 1 | 0.993 | 0.904 | 1.03 | 1.11 | 0.837 | 0.976 |
| H3255 | 0.809 | 0.858 | 0.794 | 0.512 | 0.627 | 0.44 | 0.553 | 0.533 | 0.385 | 0.384 | 0.63 | 0.742 | 0.605 | 0.963 | 0.923 | 0.86 | 0.954 | 1.2 | 0.894 | 0.85 |
| NCI-H1993 | 0.816 | 0.694 | 0.688 | 0.507 | 0.576 | 0.522 | 0.519 | 0.75 | 0.869 | 0.903 | 0.993 | 0.979 | 0.48 | 0.822 | 1.03 | 0.835 | 0.86 | 1.16 | 0.764 | 1.1 |
| NCI-H1734 | 0.709 | 0.512 | 0.515 | 0.765 | 0.69 | 0.695 | 0.647 | 0.852 | 0.865 | 0.828 | 1.06 | 0.856 | 0.231 | 1 | 0.97 | 0.853 | 0.987 | 0.986 | 0.912 | 0.914 |
| HOP-62 | 0.734 | 0.566 | 0.555 | 0.406 | 0.412 | 0.359 | 0.378 | 1.03 | 1.01 | 1.07 | 1.01 | 0.92 | 0.785 | 1.01 | 0.907 | 0.987 | 1.06 | 1.12 | 0.982 | 1.03 |
| LOU-NH91 | 0.594 | 0.857 | 0.658 | 0.796 | 0.857 | 0.738 | 0.827 | 0.588 | 0.786 | 0.575 | 0.449 | 0.526 | 0.468 | 0.893 | 1.08 | 0.723 | 0.987 | 1.05 | 0.843 | 0.973 |
